From patent publication US20230012368A1 (Hoffmann-La Roche Inc., priority 2018, published 2023)
Counter-ions that a name gives are not always drawn.

system: Acinetobacter baumannii ATCC 17978; assay: Antimicrobial susceptibility testing: 90% growth inhibitory concentration (IC90) determination; assay type: cell-based; details: 90% growth inhibitory concentration; Acinetobacter baumannii ATCC17978; Iso-Sensitest broth, OD 600 nm over 16h; read-out: ATCC17978 IC90
In short: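 Growth of the Acinetobacter baumannii strain was followed by optical density at 600 nm every 20 minutes for 16h at 35±2° C. Inoculum was ~5×10^(5) CFU/ml in Iso-Sensitest medium, with twofold compound dilutions (e.g. 50 to 0.097 μM final). The 90% inhibitory concentration was derived in log-phase growth.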

SMILES	IC90 [nM]
Cc1cc(Nc2nccn3c(-c4ccc(OC(F)F)cc4)cnc23)ccc1C(=O)N(C)CCC1CCNCC1 [Example 81, 4-((3-(4-(difluoromethoxy)phenyl)imidazo[1,2-a]pyrazin-8-yl)amino)-N,2-dimethyl-N-(2-(piperidin-4-yl)ethyl)benzamide]	200
CNCC1CN(CCN(C)C(=O)c2ccc(Nc3nccn4c(-c5ccc(OC)c(F)c5)cnc34)cc2C)CCO1 (stereo not shown) [Example 109, 4-[[3-(3-fluoro-4-methoxy-phenyl)imidazo[1,2-a]pyrazin-8-yl]amino]-N,2-dimethyl-N-[2-[2-(methylaminomethyl)morpholin-4-yl]ethyl]benzamide hydrochloride]	960
CCc1cc(Nc2nccn3c(-c4ccc(OC)c(F)c4F)cnc23)ccc1C(=O)NCCCCC(=O)NC[C@H]1O[C@H](O[C@@H]2[C@@H](O)[C@H](O[C@H]3O[C@H](CN)[C@@H](O)[C@H](O)[C@H]3O)[C@@H](N)C[C@H]2NC(=O)[C@@H](O)CCN)[C@H](O)[C@@H](N)[C@@H]1O [Example 454, trifluoroacetate]	970
CCc1cc(Nc2nccn3c(-c4ccc(OC)c(F)c4F)cnc23)ccc1C(=O)NCC(O)CNC(=O)[C@@H](N)CCCNC(=N)N (mixture of isomers) [Example 405, rac-N-(3-((R)-2-amino-5-guanidinopentanamido)-2-hydroxypropyl)-4-((3-(2,3-difluoro-4-methoxyphenyl)imidazo[1,2-a]pyrazin-8-yl)amino)-2-ethylbenzamide diformate]	360

same assay, conditions: Acinetobacter baumannii, ATCC17978, 16 h, 90% growth inhibitory concentration; Acinetobacter baumannii ATCC17978; Iso-Sensitest broth, OD 600 nm over 16h; read-out: ATCC17978 IC90

IC90 [nM]	SMILES
90	CCc1cc(Nc2nccn3c(-c4ccc(OCC#N)c(F)c4F)cnc23)ccc1C(=O)NCCNC(=O)[C@@H](N)CO [Example 135, N-[2-[[(2S)-2-amino-3-hydroxy-propanoyl]amino]ethyl]-4-[[3-[4-(cyanomethoxy)-2,3-difluoro-phenyl]imidazo[1,2-a]pyrazin-8-yl]amino]-2-ethyl-benzamide formate]
210	Cc1cc(Nc2nccn3c(-c4ccc(OCC#N)c(F)c4F)cnc23)ccc1C(=O)NC[C@@H](N)CNC(=O)[C@@H]1C[C@@H](O)CN1 [Example 473, (2S,4R)-N-[(2R)-2-amino-3-[[4-[[3-[4-(cyanomethoxy)-2,3-difluoro-phenyl]imidazo[1,2-a]pyrazin-8-yl]amino]-2-methyl-benzoyl]amino]propyl]-4-hydroxy-pyrrolidine-2-carboxamide; formic acid]
500	CCc1cc(Nc2nccn3c(-c4ccc(Oc5ccncn5)c(F)c4F)cnc23)ccc1C(=O)NCCNC(=O)CCN [Example 432, N-[2-(3-aminopropanoylamino)ethyl]-4-[[3-(2,3-difluoro-4-pyrimidin-4-yloxy-phenyl)imidazo[1,2-a]pyrazin-8-yl]amino]-2-ethyl-benzamide; formic acid]
3700	COc1ccc(-c2cnc3c(Nc4ccc(C(=O)NCCN5CCNCC5)cc4)nccn23)cc1Cl [Example 30, 4-((3-(3-chloro-4-methoxyphenyl)imidazo [1,2-a]pyrazin-8-yl)amino)-N-(2-(piperazin-1-yl)ethyl)benzamide hydrochloride]
520	Cc1cc(Nc2nccn3c(-c4ccc(OC(F)F)cc4)cnc23)ccc1C(=O)NCCSc1nnnn1C [Example 176, 4-[[3-[4-(difluoromethoxy)phenyl]im-idazo[1,2-a]pyrazin-8-yl]amino]-2-methyl-N-[2-(1-methyltetrazol-5-yl)sulfanylethyl]benzamide]
410	CCc1cc(Nc2nccn3c(-c4ccc(OC)c(F)c4F)cnc23)ccc1C(=O)NCCNC(=O)[C@@H](N)CCCN [Example 397, N-[2-[[(2S)-2,5-diaminopentanoyl]amino]eth-yl]-4-[[3-(2,3-difluoro-4-methoxy-phenyl)imidazo[1,2-a]pyrazin-8-yl]amino]-2-ethyl-benzamide; formic acid]
640	COc1ccc(-c2cnc3c(Nc4ccc(C(=O)N(C)CC(=O)N5CCNC(=O)C5)c(C)c4)nccn23)cc1F [Example 6]
240	CCc1cc(Nc2nccn3c(-c4ccc(OC)c(F)c4F)cnc23)ccc1C(=O)N[C@H](C)CN [Example 101, (R)-N-(1-aminopropan-2-yl)-4-((3-(2,3-difluoro-4-methoxyphenyl)imidazo [1,2-a]pyrazin-8-yl)amino)-2-ethylbenzamide dihydrochloride]
1400	Cc1cc(Nc2nccn3c(-c4ccc(OC(F)F)cc4)cnc23)ccc1C(=O)NCCN1C[C@@H](C)O[C@@H](C)C1 [Example 278, 4-[[3-[4-(difluoromethoxy)phenyl]im-idazo[1,2-a]pyrazin-8-yl]amino]-2-methyl-N-[2-[rac-(2R,6S)-2,6-dimethylmorpholin-4-yl]ethyl]benzamide]
85	CCc1cc(Nc2nccn3c(-c4ccc(OC)c(F)c4F)cnc23)ccc1C(=O)NCCCCCCn1ccnc1 [Example 535, N-(6-(1H-imidazol-1-yl)hexyl)-4-((3-(2,3-difluoro-4-methoxyphenyl)imidazo[1,2-a]pyrazin-8-yl)amino)-2-ethylbenzamide]
310	COc1ccc(-c2cnc3c(Nc4ccc(C(=O)N[C@@H](C)CNC(=N)C(C)C)c(Cl)c4)nccn23)c(F)c1F [Example 500, 2-chloro-4-[[3-(2,3-difluoro-4-methoxyphenyl)imidazo[1,2-a]pyrazin-8-yl]amino]-#N!- [(2#S!)-1-(2-methylpropanimidoylamino)propan-2-yl]benzamide]
280	CCc1cc(Nc2nccn3c(-c4ccc(OC(F)F)c(F)c4F)cnc23)ccc1C(=O)NCCCCN [Example 94, N-(4-aminobutyl)-4-((3-(4-(difluoromethoxy)-2,3-difluorophenyl)imidazo [1,2-a]pyrazin-8-yl)amino)-2-ethylbenzamide hydrochloride]
3600	Cc1cc(Nc2nccn3c(-c4ccc(OC(F)F)cc4)cnc23)ccc1C(=O)N(C)CC(=O)N(C)CC(=O)N1CCN(C)CC1 [Example 171, 4-[[3-[4-(difluoromethoxy)phenyl]im-idazo[1,2-a]pyrazin-8-yl]amino]-N,2-dimethyl-N-[2-[methyl-[2-(4-methylpiperazin-1-yl)-2-oxoethyl]amino]-2-oxoethyl]benzamide]
940	COc1ccc(-c2cnc3c(Nc4ccc5c(c4)CCN(CCN(C)C)C5=O)nccn23)cc1F [Example 116, 2-[2-(dimethylamino)ethyl]-6-[[3-(3-fluoro-4-methoxy-phenyl)imidazo[1,2-a]pyrazin-8-yl]amino]-3,4-dihydroisoquinolin-1-one]
780	CCc1cc(Nc2nccn3c(-c4ccc(OC)c(F)c4F)cnc23)ccc1C(=O)NCC(C)(C)CN [Example 98, N-(3-amino-2,2-dimethylpropyl)-4-((3-(2,3-difluoro-4-methoxyphenyl)imidazo [1,2-a]pyrazin-8-yl)amino)-2-ethylbenzamide hydrochloride]
90	CCc1cc(Nc2nccn3c(-c4ccc(OC)c(F)c4F)cnc23)ccc1C(=O)NCC1COC1 [Example 291, 4-[[3-(2,3-difluoro-4-methoxyphenyl)imidazo[1,2-a]pyrazin-8-yl]amino]-2-ethyl-N-(oxetan-3-ylmethyl)benzamide]
400	COc1ccc(-c2cnc3c(Nc4ccc(C(=O)N(C)C)cc4)nccn23)cc1 [Example 231, 4-[[3-(4-methoxyphenyl)imidazo[1,2-a]pyrazin-8-yl]amino]-N,N-dimethylbenzamide]
130	CCc1cc(Nc2nccn3c(-c4ccc(OCC#N)c(F)c4F)cnc23)ccc1C(=O)NCCNC(=O)CC(O)CN (stereo not shown) [Example 142, N-[2-[(4-amino-3-hydroxy-butanoyl)amino]ethyl]-4-[[3-[4-(cyanomethoxy)-2,3-difluoro-phenyl]imidazo[1,2-a]pyrazin-8-yl]amino]-2-ethyl-benzamide formate]
61	CCc1cc(Nc2nccn3c(-c4ccc(OC)c(F)c4F)cnc23)ccc1C(=O)NCC1CN(C(=O)CN)C1 [Example 532, N-[[1-(2-aminoacetyl)azetidin-3-yl]methyl]-4-[[3-(2,3-difluoro-4-methoxy-phenyl)imidazo[1,2-a]pyrazin-8-yl]amino]-2-ethyl-benzamide; formic acid]
340	Cc1cc(Nc2nccn3c(-c4ccc(OC(F)F)cc4)cnc23)ccc1C(=O)NCC1CCN(C(=N)N)CC1 [Example 24, N-((1-carbamimidoyl-piperidin-4-yl)methyl)-4-((3-(4-(difluoromethoxy)phenyl)imidazo[1,2-a]pyrazin-8-yl)amino)-2-methylbenzamide]
1900	COc1ccc(-c2cnc3c(Nc4ccc(C(=O)N(C)CC(=O)N(C)C)c(C)c4)nccn23)cc1F [Example 7, N-[2-(dimethylamino)-2-oxo-ethyl]-4-[[3-(3-fluoro-4-methoxy-phenyl)imidazo[1,2-a]pyrazin-8-yl]amino]-N,2-dimethyl-benzamide]
540	COc1ccc(-c2cnc3c(Nc4ccc(C(=O)NCCNC(=O)CC[C@H]5C(=O)N5C)c(C)c4)nccn23)c(F)c1F [Example 338, 4-[[3-(2,3-difluoro-4-methoxyphenyl)imidazo[1,2-a]pyrazin-8-yl]amino]-2-methyl-N-[2-[3-[(2S)-1-methyl-3-oxoaziridin-2-yl]propanoylamino]ethyl]benz-amide]
950	CCc1cc(Nc2nccn3c(-c4ccc(OC)c(F)c4F)cnc23)ccc1C(=O)N[C@H](C)C(=O)NCCNC [Example 566, 4-[[3-(2,3-difluoro-4-methoxy-phenyl)imidazo[1,2-a]pyrazin-8-yl]amino]-2-ethyl-N-[(1R)-1-methyl-2-[2-(methylamino)ethylamino]-2-oxo-ethyl]benzamide]
270	COc1ccc(-c2cnc3c(Nc4ccc(C(=O)NCCN5CCNCC5)c(Cl)c4)nccn23)cc1F [Example 188, 2-chloro-4-[[3-(3-fluoro-4-methoxyphenyl)imidazo[1,2-a]pyrazin-8-yl]amino]-N-(2-piperazin-1-ylethyl)benzamide;hydrochlo-ride]
